Key:
[1] = test system: Escherichia coli ATCC 25922; assay: Minimum inhibitory concentration (MIC), CLSI broth micro-dilution, E. coli; type: cell-based; conditions: Escherichia coli, ATCC25922, 22 h, Table 6, cation adjusted Mueller Hinton Broth + 0.002% Tween-80, 35° C.
In short: (§1)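 Colonies grown 20 h at 35° C on Trypticase Soy agar (MRSA) or Luria agar (E. coli) were suspended in cation-adjusted Mueller Hinton broth with 0.002% Tween-80. Suspensions were added at OD600 0.0005 to 10-point twofold compound dilutions, then incubated 22 h at 35° C.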

[2] = test system: Methicillin Resistant Staphylococcus aureus strain USA 200; assay: Minimum inhibitory concentration (MIC), CLSI broth micro-dilution, S. aureus; type: cell-based; conditions: Staphylococcus aureus, MRSA / USA200; Table 6; MRSA USA 200; cation adjusted Mueller Hinton Broth + 0.002% Tween-80; 35° C., 22 hours
In short: as §1

Row | Structure (SMILES) | MIC [1] [µM] | MIC [2] [µM]
1 | CCCCCCCc1ccc(C(=O)N[C@@H](CCN)C(=O)N(C)[C@@H]2C(=O)N[C@@H](C)C(=O)N[C@H](C(=O)NCC#N)Cc3ccc(OCCN)c(c3)-c3cc2ccc3OCCN)c(OCC(=O)O)c1 (racemic) [Compound 379, 2-[5-heptyl-2-[[rac-(1S)-3-amino-1-[methyl-[rac-(7S,10S,13S)-3,18-bis(2-aminoethoxy)-13-(cyanomethylcarbamoyl)-10-methyl-8,11-dioxo-9,12-diazatricyclo[13.3.1.12,6]icosa-1(19),2,4,6(20),15,17-hexaen-7-yl]carbamoyl]propyl]carbamoyl]phenoxy]acetic acid] | 1 | 0.26
2 | CCCCCc1ccc(-c2nc(C)c(C(=O)N[C@@H](CCN)C(=O)N(C)[C@@H]3C(=O)N[C@@H](C)C(=O)N[C@H](C(=O)NCC#N)Cc4ccc(OCCN)c(c4)-c4cc3ccc4OCCN)o2)cc1 (racemic) [Compound 381, 4-methyl-2-(4-pentylphenyl)-N-[rac-(1S)-3-amino-1-[methyl-[rac-(7S,10S,13S)-3,18-bis(2-aminoethoxy)-13-(cyanomethylcarbamoyl)-10-methyl-8,11-dioxo-9,12-diazatricyclo[13.3.1.12,6]icosa-1(19),2,4,6(20),15,17-hexaen-7-yl]carbamoyl]propyl]oxazole-5-carboxamide] | 4.3 | 0.067
3 | CCCCCc1ccc(-c2nc(C)c(C(=O)N[C@H](CCN)C(=O)N(C)[C@@H]3C(=O)N[C@@H](C)C(=O)N[C@H](C(=O)NCC#N)Cc4ccc(OCCN)c(c4)-c4cc3ccc4OCCN)o2)cc1 (racemic) [Compound 382, 4-methyl-2-(4-pentylphenyl)-N-[rac-(1R)-3-amino-1-[methyl-[rac-(7S,10S,13S)-3,18-bis(2-aminoethoxy)-13-(cyanomethylcarbamoyl)-10-methyl-8,11-dioxo-9,12-diazatricyclo[13.3.1.12,6]icosa-1(19),2,4,6(20),15,17-hexaen-7-yl]carbamoyl]propyl]oxazole-5-carboxamide] | 4.3 | 0.4
4 | Cc1nc(-c2ccc(C(C)(C)C)cc2)nnc1C(=O)N[C@@H](CCN)C(=O)N(C)[C@@H]1C(=O)N[C@@H](C)C(=O)N[C@H](C(=O)NCC#N)Cc2ccc(OCCN)c(c2)-c2cc1ccc2OCCN (racemic) [Compound 385, rac-(8S,11S,14S)-3,18-bis(2-aminoethoxy)-N-(cyanomethyl)-11-methyl-14-[methyl-[rac-(2S)-4-amino-2-[[3-(4-tert-butylphenyl)-5-methyl-1,2,4-triazine-6-carbonyl]amino]butanoyl]amino]-10,13-dioxo-9,12-diazatricyclo[13.3.1.12,6]icosa-1(18),2(20),3,5,15(19),16-hexaene-8-carboxamide] | 0.27 | 0.017
5 | Cc1nc2cc(-c3ccc(C(C)(C)C)cc3)ccn2c1C(=O)N[C@@H](CCN)C(=O)N(C)[C@@H]1C(=O)N[C@@H](C)C(=O)N[C@H](C(=O)NCC#N)Cc2ccc(OCCN)c(c2)-c2cc1ccc2OCCN (racemic) [Compound 393, rac-(8S,11S,14S)-3,18-bis(2-aminoethoxy)-N-(cyanomethyl)-11-methyl-14-[methyl-[rac-(2S)-4-amino-2-[[7-(4-tert-butylphenyl)-2-methyl-imidazo[1,2-a]pyridine-3-carbonyl]amino]butanoyl]amino]-10,13-dioxo-9,12-diazatricyclo[13.3.1.12,6]icosa-1(18),2(20),3,5,15(19),16-hexaene-8-carboxamide] | 8.2 | 0.021
6 | CCCCCCc1ccc2cc(C(=O)N[C@@H](CCN)C(=O)N(C)[C@@H]3C(=O)N[C@@H](C)C(=O)N[C@H](C(=O)NCC#N)Cc4ccc(OCCN)c(c4)-c4cc3ccc4OCCN)c(C)nc2c1 (racemic) [Compound 394, rac-(8S,11S,14S)-3,18-bis(2-aminoethoxy)-N-(cyanomethyl)-11-methyl-14-[methyl-[rac-(2S)-4-amino-2-[(7-hexyl-2-methyl-quinoline-3-carbonyl)amino]butanoyl]amino]-10,13-dioxo-9,12-diazatricyclo[13.3.1.12,6]icosa-1(18),2(20),3,5,15(19),16-hexaene-8-carboxamide] | 0.2 | 0.0083
7 | CCCCCCc1ccc2nc(C)c(C(=O)N[C@@H](CCN)C(=O)N(C)[C@@H]3C(=O)N[C@@H](C)C(=O)N[C@H](C(=O)NCC#N)Cc4ccc(OCCN)c(c4)-c4cc3ccc4OCCN)cc2c1 (racemic) [Compound 395, rac-(8S,11S,14S)-3,18-bis(2-aminoethoxy)-N-(cyanomethyl)-11-methyl-14-[methyl-[rac-(2S)-4-amino-2-[(6-hexyl-2-methyl-quinoline-3-carbonyl)amino]butanoyl]amino]-10,13-dioxo-9,12-diazatricyclo[13.3.1.12,6]icosa-1(18),2(20),3,5,15(19),16-hexaene-8-carboxamide] | 0.27 | 0.013

The next lines start with the values.

Row | MIC [1] [µM] | MIC [2] [µM] | Structure (SMILES)
8 | 0.48 | 0.045 | CCCCCCOc1ccc(-c2cc(-c3ccc(C(=O)N[C@@H](CCN)C(=O)N(C)[C@@H]4C(=O)N[C@@H](C)C(=O)N[C@H](C(=O)NCC#N)Cc5ccc(OCCN)c(c5)-c5cc4ccc5OCCN)cc3)no2)cc1 (racemic) [Compound 380, rac-(8S,11S,14S)-3,18-bis(2-aminoethoxy)-N-(cyanomethyl)-11-methyl-14-[methyl-[rac-(2S)-4-amino-2-[[4-[5-(4-hexoxyphenyl)isoxazol-3-yl]benzoyl]amino]butanoyl]amino]-10,13-dioxo-9,12-diazatricyclo[13.3.1.12,6]icosa-1(18),2(20),3,5,15(19),16-hexaene-8-carboxamide]
9 | 1.1 | 0.1 | C[C@@H]1NC(=O)[C@@H](N(C)C(=O)[C@H](CCN)NC(=O)c2ccn(-c3ccc(C(C)(C)C)cc3)c(=O)c2)c2ccc(OCCN)c(c2)-c2cc(ccc2OCCN)C[C@@H](C(=O)NCC#N)NC1=O (racemic) [Compound 383, rac-(8S,11S,14S)-3,18-bis(2-aminoethoxy)-N-(cyanomethyl)-11-methyl-14-[methyl-[rac-(2S)-4-amino-2-[[1-(4-tert-butylphenyl)-2-oxo-pyridine-4-carbonyl]amino]butanoyl]amino]-10,13-dioxo-9,12-diazatricyclo[13.3.1.12,6]icosa-1(18),2(20),3,5,15(19),16-hexaene-8-carboxamide]
10 | 0.4 | 0.033 | C[C@@H]1NC(=O)[C@@H](N(C)C(=O)[C@H](CCN)NC(=O)c2cnn(-c3ccc(C(C)(C)C)cc3)c(=O)c2)c2ccc(OCCN)c(c2)-c2cc(ccc2OCCN)C[C@@H](C(=O)NCC#N)NC1=O (racemic) [Compound 384, rac-(8S,11S,14S)-3,18-bis(2-aminoethoxy)-N-(cyanomethyl)-11-methyl-14-[methyl-[rac-(2S)-4-amino-2-[[1-(4-tert-butylphenyl)-6-oxo-pyridazine-4-carbonyl]amino]butanoyl]amino]-10,13-dioxo-9,12-diazatricyclo[13.3.1.12,6]icosa-1(18),2(20),3,5,15(19),16-hexaene-8-carboxamide]
11 | 8 | 0.75 | C[C@@H]1NC(=O)[C@@H](N(C)C(=O)[C@H](CCN)NC(=O)c2cnc(-c3ccc(C(C)(C)C)cc3)c(=O)n2C)c2ccc(OCCN)c(c2)-c2cc(ccc2OCCN)C[C@@H](C(=O)NCC#N)NC1=O (racemic) [Compound 386, rac-(8S,11S,14S)-3,18-bis(2-aminoethoxy)-N-(cyanomethyl)-11-methyl-14-[methyl-[rac-(2S)-4-amino-2-[[5-(4-tert-butylphenyl)-1-methyl-6-oxo-pyrazine-2-carbonyl]amino]butanoyl]amino]-10,13-dioxo-9,12-diazatricyclo[13.3.1.12,6]icosa-1(18),2(20),3,5,15(19),16-hexaene-8-carboxamide]
12 | 1 | 0.031 | CCCCCCc1ncc(-c2ccc(C(=O)N[C@@H](CCN)C(=O)N(C)[C@@H]3C(=O)N[C@@H](C)C(=O)N[C@H](C(=O)NCC#N)Cc4ccc(OCCN)c(c4)-c4cc3ccc4OCCN)c(C(F)F)c2)cn1 (racemic) [Compound 388, rac-(8S,11S,14S)-3,18-bis(2-aminoethoxy)-N-(cyanomethyl)-11-methyl-14-[methyl-[rac-(2S)-4-amino-2-[[2-(difluoromethyl)-4-(2-hexylpyrimidin-5-yl)benzoyl]amino]butanoyl]amino]-10,13-dioxo-9,12-diazatricyclo[13.3.1.12,6]icosa-1(18),2(20),3,5,15(19),16-hexaene-8-carboxamide]
13 | 4 | 0.13 | C[C@@H]1NC(=O)[C@@H](N(C)C(=O)[C@H](CCN)NC(=O)C2CCN(c3ccc(C(C)(C)C)cc3)CC2)c2ccc(OCCN)c(c2)-c2cc(ccc2OCCN)C[C@@H](C(=O)NCC#N)NC1=O (racemic) [Compound 389, rac-(8S,11S,14S)-3,18-bis(2-aminoethoxy)-N-(cyanomethyl)-11-methyl-14-[methyl-[rac-(2S)-4-amino-2-[[1-(4-tert-butylphenyl)piperidine-4-carbonyl]amino]butanoyl]amino]-10,13-dioxo-9,12-diazatricyclo[13.3.1.12,6]icosa-1(18),2(20),3,5,15(19),16-hexaene-8-carboxamide]
14 | 0.5 | 0.016 | CCCCCCOc1ccc2nc(C)c(C(=O)N[C@@H](CCN)C(=O)N(C)[C@@H]3C(=O)N[C@@H](C)C(=O)N[C@H](C(=O)NCC#N)Cc4ccc(OCCN)c(c4)-c4cc3ccc4OCCN)cc2c1 (racemic) [Compound 396, rac-(8S,11S,14S)-3,18-bis(2-aminoethoxy)-N-(cyanomethyl)-11-methyl-14-[methyl-[rac-(2S)-4-amino-2-[(6-hexoxy-2-methyl-quinoline-3-carbonyl)amino]butanoyl]amino]-10,13-dioxo-9,12-diazatricyclo[13.3.1.12,6]icosa-1(18),2(20),3,5,15(19),16-hexaene-8-carboxamide]
